This test concerns Enterococcus faecalis strain L 149. Briefly: Bactericidal activity, time-kill curves. The class given is cell-based. As to conditions: 8 mg/I, in 48 h; inoculum 1.4 x 10^7 CFU/ml. The protocol: Time-kill curves were run in 10 ml of Todd-Hewitt broth in 100 ml Erlenmeyer flasks, incubated at 37°C without agitation. A logarithmically growing culture of Enterococcus faecalis strain L 149 was inoculated at 1.4 x 10^7 CFU/ml.
The reference antibiotic (teicoplanin, 8 mg/I) killed 99% of the infecting bacteria in 48 h, while antibiotic GE 2270 factor A (0.13 mg/I) killed 99.8% of the bacteria within 2 h and 99.99% within 48 h at this dose or within 24 h at 4 mg/I.

As for teicoplanin, the killed bacteria stood at 99%.

Source of the values: patent EP0359062B1, “Antibiotic GE 2270” (priority 1988, dated 1990).
